Experiment [1] deals with T1, mouse TAAR1 (Mus musculus, UniProt Q923Y8).
T1 construct: expressed in transfected cells; host or cells: HEK293 (ATCC # CRL-1573), stably transfected with pIRESneo2 expression plasmid
The experiment in a line: TAAR1 radioligand binding with [3H]-rac-2-(1,2,3,4-tetrahydro-1-naphthyl)-2-imidazoline, membranes of stably transfected HEK293 cells. Particulars: first value of the cell, read-out: Ki (μM) mouse/rat: mouse. As for the experimental part: (§1) For the construction of expression plasmids the coding sequences of human, rat and mouse TAAR 1 were amplified from genomic DNA essentially as described by Lindemann et al.. The Expand High Fidelity PCR System (Roche Diagnostics) was used with 1.5 mM Mg^2+ and purified PCR products were cloned into pCR2.1-TOPO cloning vector (Invitrogen) following the instructions of the manufacturer. PCR products were subcloned into the pIRESneo2 vector (BD Clontech, Palo Alto, Calif.), and expression vectors were sequence verified before introduction in cell lines.
(§2) HEK293 cells (ATCC # CRL-1573) were cultured essentially as described by Lindemann et al. (2005). For the generation of stably transfected cell lines HEK293 cells were transfected with the pIRESneo2 expression plasmids containing the TAAR coding sequences (described above) with Lipofectamine 2000 (Invitrogen) according to the instructions of the manufacturer, and 24 hrs post transfection the culture medium was supplemented with 1 mg/ml G418 (Sigma, Buchs, Switzerland). After a culture period of about 10 d clones were isolated, expanded and tested for responsiveness to trace amines (all compounds purchased from Sigma) with the cAMP Biotrak Enzyme immunoassay (EIA) System (Amersham) following the non-acetylation EIA procedure provided by the manufacturer.
(§3) Cells at confluence were rinsed with ice-cold phosphate buffered saline without Ca^2+ and Mg^2+ containing 10 mM EDTA and pelleted by centrifugation at 1000 rpm for 5 min at 4° C. The pellet was then washed twice with ice-cold phosphate buffered saline and the cell pellet was frozen immediately by immersion in liquid nitrogen and stored until use at −80° C. The cell pellet was then suspended in 20 ml HEPES-NaOH (20 mM), pH 7.4 containing 10 mM EDTA, and homogenized with a Polytron (PT 3000, Kinematica) at 10,000 rpm for 10 s. The homogenate was centrifuged at 48,000×g for 30 min at 4° C. and the pellet resuspended in 20 ml HEPES-NaOH (20 mM), pH 7.4 containing 0.1 mM EDTA (buffer A), and homogenized with a Polytron at 10,000 rpm for 10 s. The homogenate was then centrifuged at 48,000×g for 30 min at 4° C. and the pellet resuspended in 20 ml buffer A, and homogenized with a Polytron at 10,000 rpm for 10 s. Protein concentration was determined by the method of Pierce (Rockford, Ill.). The homogenate was then centrifuged at 48,000×g for 10 min at 4° C., resuspended in HEPES-NaOH (20 mM), pH 7.0 including MgCl2 (10 mM) and […] homogenized with a Polytron at 10,000 rpm for 10 s.
(§4) The binding assay was performed at 4° C. in a final volume of 1 ml, and with an incubation time of 30 min. The radioligand [^3H]-rac-2-(1,2,3,4-tetrahydro-1-naphthyl)-2-imidazoline was used at a concentration equal to the calculated Kd value of 60 nM to give a bound at around 0.1% of the total added radioligand concentration, and a specific binding which represented approximately 70-80% of the total binding. Non-specific binding was defined as the amount of [^3H]-rac-2-(1,2,3,4-tetrahydro-1-naphthyl)-2-imidazoline bound in the presence of the appropriate unlabelled ligand (10 μM). Competing ligands were tested in a wide range of concentrations (10 pM-30 μM). […] Each experiment was performed in duplicate. All incubations were terminated by rapid filtration through UniFilter-96 plates (Packard Instrument Company) and glass filter GF/C, pre-soaked for at least 2 h in polyethylenimine 0.3%, and using a Filtermate 96 Cell Harvester (Packard Instrument Company). The tubes and filters were then washed 3 times with 1 ml aliquots of cold buffer B. Filters were not dried and soaked in Ultima gold (45 μl/well, Packard Instrument Company) and bound radioactivity was counted by a TopCount Microplate Scintillation Counter (Packard Instrument Company).

Experiment [2] concerns the target T2, rat TAAR1 (Rattus norvegicus, UniProt Q923Y9).
T2 construct: expressed in transfected cells; host or cells: HEK293 (ATCC # CRL-1573), stably transfected with pIRESneo2 expression plasmid
Described as above. Particulars: second value of the cell, read-out: Ki (μM) mouse/rat: rat. The method, then: as §1, §2, §3, §4

T2 sequence (Q923Y9 whole entry): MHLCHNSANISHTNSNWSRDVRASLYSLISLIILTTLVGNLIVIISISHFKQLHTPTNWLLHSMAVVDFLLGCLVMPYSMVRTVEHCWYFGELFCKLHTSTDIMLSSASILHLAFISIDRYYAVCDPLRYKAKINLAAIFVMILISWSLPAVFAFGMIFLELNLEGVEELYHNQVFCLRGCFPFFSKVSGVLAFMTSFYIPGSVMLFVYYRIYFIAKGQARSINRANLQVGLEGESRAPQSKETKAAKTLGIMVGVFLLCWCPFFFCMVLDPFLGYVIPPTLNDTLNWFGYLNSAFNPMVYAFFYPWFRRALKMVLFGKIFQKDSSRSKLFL
T1 sequence (Q923Y8 whole entry): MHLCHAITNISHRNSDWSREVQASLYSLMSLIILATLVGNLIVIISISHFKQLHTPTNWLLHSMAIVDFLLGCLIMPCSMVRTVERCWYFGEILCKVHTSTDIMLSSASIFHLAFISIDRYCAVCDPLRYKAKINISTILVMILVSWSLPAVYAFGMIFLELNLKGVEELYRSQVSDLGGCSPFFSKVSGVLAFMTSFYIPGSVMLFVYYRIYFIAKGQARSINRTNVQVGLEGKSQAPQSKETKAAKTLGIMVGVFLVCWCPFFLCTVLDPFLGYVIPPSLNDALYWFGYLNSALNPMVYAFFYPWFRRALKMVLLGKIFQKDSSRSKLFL

Turning to `NC1=N[C@@H](CCc2ccc(NC(=O)c3ccnc(-c4ccncc4)c3)cc2)CO1` [Example 199, (S)-N-(4-(2-(2-Amino-4,5-dihydrooxazol-4-yl)ethyl)phenyl)-2,4′-bipyridine-4-carboxamide], the figures for the Ki in experiment [1] and in experiment [2] were 0.0027 µM and 0.0037 µM, respectively.

Turning to `NC1=N[C@@H](CCc2ccc(NC(=O)c3ccc4cccnc4n3)cc2)CO1` [Example 105, [1,8]Naphthyridine-2-carboxylic acid {4-[2-((S)-2-amino-4,5-dihydro-oxazol-4-yl)-ethyl]-phenyl}-amide], the Ki is 0.0051 µM in experiment [1] and 0.0011 µM in experiment [2].

Regarding `CC(C)c1ocnc1C(=O)Nc1ccc(CC[C@H]2COC(N)=N2)cc1` [Example 215, (S)-N-(4-(2-(2-Amino-4,5-dihydrooxazol-4-yl)ethyl)phenyl)-5-isopropyloxazole-4-carboxamide], the figures for the Ki in experiment [1] and in experiment [2] were 0.0012 µM and 0.0038 µM, respectively.

`NC1=N[C@@H](CCc2ccc(NC(=O)c3ccc(OCC(F)(F)F)nc3)cc2)CO1` [Example 113, N-{4-[2-((S)-2-Amino-4,5-dihydro-oxazol-4-yl)-ethyl]-phenyl}-6-(2,2,2-trifluoro-ethoxy)-nicotinamide]: the results for the Ki in experiment [1] and in experiment [2] were 0.0006 µM and 0.001 µM, respectively.

`NC1=N[C@@H](CCc2ccc(NC(=O)c3ccc(-n4cccn4)nc3)cc2)CO1` [Example 85, N-{4-[2-((S)-2-Amino-4,5-dihydro-oxazol-4-yl)-ethyl]-phenyl}-6-pyrazol-1-yl-nicotinamide]: the Ki in experiment [1] was 0.0012 µM; in experiment [2], 0.0015 µM.

For `Cc1cc(C)nc(C(=O)Nc2ccc(CC[C@H]3COC(N)=N3)cc2)c1` [Example 157, (S)-N-(4-(2-(2-Amino-4,5-dihydrooxazol-4-yl)ethyl)phenyl)-4,6-dimethylpicolinamide], the Ki was 0.0019 µM in experiment [1] and 0.0006 µM in experiment [2].

Regarding `COc1cc(C(=O)Nc2ccc(CC[C@@H]3N=C(N)O[C@H]3C)cc2)nc(Cl)n1` [Example 219, 2-Chloro-6-methoxy-pyrimidine-4-carboxylic acid {4-[2-((4S,5S)-2-amino-5-methyl-4,5-dihydro-oxazol-4-yl)-ethyl]-phenyl}-amide], the figures for the Ki in experiment [1] and in experiment [2] were 0.0048 µM and 0.0037 µM, respectively.

Consider `NC1=N[C@@H](CCc2ccc(NC(=O)c3ccc4cnccc4n3)cc2)CO1` [Example 104, [1,6]Naphthyridine-2-carboxylic acid {4-[2-((S)-2-amino-4,5-dihydro-oxazol-4-yl)-ethyl]-phenyl}-amide], for which the Ki in experiment [1] stood at 0.0034 µM; in experiment [2] it was 0.0014 µM.

Turning to `CC[C@@H](C[C@H]1COC(N)=N1)c1ccc(NC(=O)Nc2ccc(F)cc2)cc1` [Example 12, 1-{4-[(S)-1-((S)-2-Amino-4,5-dihydro-oxazol-4-ylmethyl)-propyl]-phenyl}-3-(4-fluoro-phenyl)-urea], the Ki in experiment [1] turned out to be 0.0012 µM; in experiment [2] it was 0.002 µM.

As for `NC1=N[C@@H](CCc2ccc(NC(=O)C3CCC3)cc2)CO1` [Example 45, Cyclobutanecarboxylic acid {4-[2-((S)-2-amino-4,5-dihydro-oxazol-4-yl)-ethyl]-phenyl}-amide], the Ki in experiment [1] was determined as 0.0026 µM; in experiment [2] it was 0.0017 µM.

Take `CC(C)c1cncc(C(=O)Nc2ccc(CC[C@H]3COC(N)=N3)cc2)n1` [Example 230, (S)-N-(4-(2-(2-Amino-4,5-dihydrooxazol-4-yl)ethyl)phenyl)-6-isopropylpyrazine-2-carboxamide]: the results for the Ki in experiment [1] and in experiment [2] were 0.0009 µM and 0.0016 µM, respectively.

As for `NC1=N[C@@H](CCc2ccc(NC(=O)c3cnc(C(F)(F)F)cn3)cc2)CO1` [Example 159, (S)-N-(4-(2-(2-Amino-4,5-dihydrooxazol-4-yl)ethyl)phenyl)-5-(trifluoromethyl)pyrazine-2-carboxamide], the Ki in experiment [1] is 0.001 µM; in experiment [2], 0.0024 µM.

As for `COc1ccc(C(=O)Nc2ccc(CC[C@H]3COC(N)=N3)cc2)nc1` [Example 117, (S)-N-(4-(2-(2-Amino-4,5-dihydrooxazol-4-yl)ethyl)phenyl)-5-methoxypicolinamide], the Ki is 0.002 µM in experiment [1] and 0.0008 µM in experiment [2].

Consider `Cc1ocnc1C(=O)Nc1ccc(CC[C@H]2COC(N)=N2)cc1` [Example 191, (S)-N-(4-(2-(2-Amino-4,5-dihydrooxazol-4-yl)ethyl)phenyl)-5-methyloxazole-4-carboxamide], for which the Ki in experiment [1] amounted to 0.0042 µM; in experiment [2], 0.0021 µM.

For `Cc1ocnc1C(=O)Nc1ccc(CC[C@@H]2N=C(N)O[C@H]2C)cc1` [Example 222, 5-Methyl-oxazole-4-carboxylic acid {4-[2-((4S,5S)-2-amino-5-methyl-4,5-dihydro-oxazol-4-yl)-ethyl]-phenyl}-amide], the values for the Ki in experiment [1] and in experiment [2] were 0.0071 µM and 0.004 µM, respectively.

Consider `NC1=N[C@@H](CCc2ccc(NC(=O)Cc3ccc(Cl)cc3)cc2)CO1` [Example 70, N-{4-[2-((S)-2-Amino-4,5-dihydro-oxazol-4-yl)-ethyl]-phenyl}-2-(4-chloro-phenyl)-acetamide], for which the Ki in experiment [1] and in experiment [2] was 0.001 µM each time.

As to `NC1=N[C@@H](CCc2ccc(NC(=O)C3(c4ccc(Cl)cc4)CC3)cc2)CO1` [Example 53, 1-(4-Chloro-phenyl)-cyclopropanecarboxylic acid {4-[2-((S)-2-amino-4,5-dihydro-oxazol-4-yl)-ethyl]-phenyl}-amide], the Ki in experiment [1] was found to be 0.0009 µM; in experiment [2], 0.0016 µM.

For `COC(C(=O)Nc1ccc(CC[C@H]2COC(N)=N2)cc1)c1ccc(Cl)cc1` (stereo partly drawn) [Example 78, N-{4-[2-((S)-2-Amino-4,5-dihydro-oxazol-4-yl)-ethyl]-phenyl}-2-(4-chloro-phenyl)-2-methoxy-acetamide], the Ki in experiment [1] turned out to be 0.0048 µM; in experiment [2], 0.0031 µM.

For the compound `NC1=N[C@@H](CCc2ccc(NC(=O)Oc3ccc(F)cc3)cc2)CO1` [Example 148, {4-[2-((S)-2-Amino-4,5-dihydro-oxazol-4-yl)-ethyl]-phenyl}-carbamic acid 4-fluoro-phenyl ester], the Ki in experiment [1] was 0.0005 µM; in experiment [2], 0.0006 µM.

On to `NC1=N[C@@H](CCc2ccc(NS(=O)(=O)c3ccc(Cl)c(Cl)c3)cc2)CO1` [Example 76, N-{4-[2-((S)-2-Amino-4,5-dihydro-oxazol-4-yl)-ethyl]-phenyl}-3,4-dichloro-benzenesulfonamide], for which the Ki in experiment [1] was found to be 0.009 µM; in experiment [2], 0.0009 µM.

`C[C@@H]1OC(N)=N[C@H]1CCc1ccc(NC(=O)c2ccc(C(F)(F)F)cn2)cc1` [Example 226, 5-Trifluoromethyl-pyridine-2-carboxylic acid {4-[2-((4S,5S)-2-amino-5-methyl-4,5-dihydro-oxazol-4-yl)-ethyl]-phenyl}-amide]: the Ki in experiment [1] is 0.0011 µM; in experiment [2] it was 0.0021 µM.

Regarding `NC1=N[C@@H](CCc2ccc(NC(=O)c3cnc(C(F)(F)F)nc3C3CC3)cc2)CO1` [Example 209, (S)-N-(4-(2-(2-Amino-4,5-dihydrooxazol-4-yl)ethyl)phenyl)-4-cyclopropyl-2-(trifluoromethyl)pyrimidine-5-carboxamide], the Ki in experiment [1] is 0.0013 µM; in experiment [2], 0.0035 µM.

With `NC1=N[C@@H](CCc2ccc(NC(=O)c3ccc(Cl)cn3)cc2)CO1` [Example 33, 5-Chloro-pyridine-2-carboxylic acid {4-[2-((S)-2-amino-4,5-dihydro-oxazol-4-yl)-ethyl]-phenyl}-amide], the figures for the Ki in experiment [1] and in experiment [2] were 0.0006 µM and 0.001 µM, respectively.

The values above are taken from patent publication US8354441B2, “Oxazoline derivatives” (Hoffmann-La Roche Inc., priority 2009, dated 2013).
